Consider 5 molecules from the NIST ThermoML archive (doi:10.1016/j.fluid.2007.01.029).

SMILES strings stand for the structures. ± gives the expanded uncertainty stated by the source.

The conditions of the data set: Crystal.
Take `c1ccccc1` [benzene]: the Normal melting temperature is 5.44 ± 0.6 °C. To `C1CC[C@H]2CCCC[C@H]2C1` [cis-decahydronaphthalene] belongs -45.08 ± 0.6 °C. With `C1CCCCC1` [cyclohexane], the Normal melting temperature is 6.48 ± 0.6 °C. To `c1ccc2ccccc2c1` [naphthalene] belongs 79.99 ± 0.6 °C; to `C1CC[C@H]2CCCC[C@@H]2C1` [trans-decahydronaphthalene], -30.44 ± 0.6 °C.
